Source: patent US8163737B2 (Vertex Pharmaceuticals Incorporated, priority 2006, dated 2012)

Assays:
endogenous CGRP receptor = endogenous CGRP receptor (Homo sapiens, UniProt O60894+Q16602); assay: CGRP functional antagonism using SK-N-MC-BLA (4C10), β-lactamase transcriptional reporter assay; format: cell-based; conditions: SK-N-MC (4C10) cells, inhibition of β-lactamase expression in the presence of 200 pM CGRP
[1] = molecular target: T1, CGRP receptor (SK-N-MC membrane) (Homo sapiens, UniProt O60894+Q16602); assay: I125-CGRP binding displacement assay on purified SK-N-MC membrane
T1 construct: Purified SK-N-MC membrane was purchased from Perkin Elmer; purchased Perkin Elmer; host or cells: SK-N-MC membrane
T1 sequence (Q16602 23-461): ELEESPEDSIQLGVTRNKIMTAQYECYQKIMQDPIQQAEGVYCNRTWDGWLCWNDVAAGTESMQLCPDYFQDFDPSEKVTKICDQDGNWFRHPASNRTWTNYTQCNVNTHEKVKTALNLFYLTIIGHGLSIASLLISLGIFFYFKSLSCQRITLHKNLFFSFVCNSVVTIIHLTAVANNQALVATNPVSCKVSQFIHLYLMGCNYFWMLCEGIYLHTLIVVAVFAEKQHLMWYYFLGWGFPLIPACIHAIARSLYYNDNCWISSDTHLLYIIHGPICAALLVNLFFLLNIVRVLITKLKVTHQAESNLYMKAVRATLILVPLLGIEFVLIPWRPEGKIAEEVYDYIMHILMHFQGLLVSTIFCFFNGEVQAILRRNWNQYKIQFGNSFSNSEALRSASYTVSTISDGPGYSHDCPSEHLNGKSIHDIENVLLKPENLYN
T1 sequence (O60894 27-148): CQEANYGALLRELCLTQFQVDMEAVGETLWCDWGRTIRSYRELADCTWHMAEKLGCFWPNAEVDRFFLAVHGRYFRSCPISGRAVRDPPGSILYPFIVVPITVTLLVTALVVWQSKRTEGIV
Procedure, shortened: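 Human SK-N-MC membranes incubated with compounds and I125-CGRP for 2 h at room temperature in 25 mM Tris-HCl pH 7.4, 5 mM MgCl2, 0.1% BSA, 0.05% Tween, then filtered and counted. Nonspecific binding defined with 1 uM unlabelled CGRP; percent displacement fitted to curves.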

endogenous CGRP receptor, sequence (Q16602 23-461): as the sequence (Q16602 23-461) above
endogenous CGRP receptor, sequence (O60894 27-148): as the sequence (O60894 27-148) above

Row | Compound | IC50 (endogenous CGRP receptor) [µM] | Ki [1] [µM]
1 | CC(C)(C)N1CCN(c2c(F)cccc2C2S[C@@H](CC(=O)N3CCC(n4c(=O)[nH]c5ncccc54)CC3)C(=O)N2CCc2ccc(F)cc2)CC1 (some centres unmarked) [Compound 505] | < 1 | < 1
2 | CC(C)(C)CCN1C(=O)[C@H](CC(=O)N2CCC(N3CCc4ccccc4NC3=O)CC2)SC1c1ccccc1N1CCN(C(=O)OC(C)(C)C)CC1=O (some centres unmarked) [Compound 510] | < 1 | < 1
3 | CC(C)(C)CCN1C(=O)[C@H](CC(=O)N2CCC(N3CCc4ccccc4NC3=O)CC2)SC1c1ccccc1N1CCNCC1=O (some centres unmarked) [Compound 511] | < 1 | < 1
4 | CC(C)(C)CCN1C(=O)[C@H](CC(=O)N2CCC(N3CCc4ccccc4NC3=O)CC2)SC1c1ccccc1N1CCNCC1=O (some centres unmarked) [Compound 512] | < 1 | < 1
5 | CN(C)CCNc1c(F)cccc1C1S[C@@H](CC(=O)N2CCC(N3CCc4ccccc4NC3=O)CC2)C(=O)N1CCC(C)(C)C (stereo partly drawn) [Compound 513, 3-(1-(2-((5S)-2-(2-(2-(Dimethylamino)ethylamino)-3-fluorophenyl)-3-(3,3-dimethylbutyl)-4-oxothiazolidin-5-yl)acetyl)piperidin-4-yl)-4,5-dihydro-1H-benzo[d][1,3]diazepin-2(3H)-one] | < 1 | < 1
6 | CC(C)(C)N1CCN(c2c(F)cccc2[C@H]2S[C@@H](CC(=O)N3CCC(N4CCc5ccccc5NC4=O)CC3)C(=O)N2CC2CCCCC2)CC1 [Compound 514] | < 1 | < 1
7 | CN(C)CCNc1c(F)cccc1C1S[C@@H](CC(=O)N2CCC(n3c(=O)[nH]c4ncccc43)CC2)C(=O)N1CCC(C)(C)C (stereo partly drawn) [Compound 518, 1-(1-(2-((5S)-2-(2-(2-(Dimethylamino)ethylamino)-3-fluorophenyl)-3-(3,3-dimethylbutyl)-4-oxothiazolidin-5-yl)acetyl)piperidin-4-yl)-1H-imidazo[4,5-b]pyridin-2(3H)-one] | < 1 | < 1
8 | CCCCN1C(=O)[C@H](CC(=O)N2CCC(N3CCc4ccccc4NC3=O)CC2)SC1c1cccc(F)c1N1CCN(C(C)(C)C)CC1 (some centres unmarked) [Compound 521] | < 1 | < 1
9 | CC(C)(C)N1CCN(c2c(F)cccc2[C@H]2S[C@@H](CC(=O)N3CCC(N4CCc5ccccc5NC4=O)CC3)C(=O)N2CC2CCOCC2)CC1 [Compound 523] | < 1 | < 1
10 | CC(C)(C)N1CCN(c2c(F)cccc2C2S[C@@H](CC(=O)N3CCC(n4c(=O)[nH]c5ncccc54)CC3)C(=O)N2CC2CCOCC2)CC1 (some centres unmarked) [Compound 525] | < 1 | < 1
11 | CC(C)OCCN1C(=O)[C@H](CC(=O)N2CCC(N3CCc4ccccc4NC3=O)CC2)SC1c1cccc(F)c1N1CCN(C(C)(C)C)CC1 (some centres unmarked) [Compound 526] | < 1 | < 1
12 | CC(C)(C)CCN1C(=O)[C@H](CC(=O)N2CCC(n3c(=O)[nH]c4ncccc43)CC2)SC1c1ccccc1N1CCNCC1=O (some centres unmarked) [Compound 527] | < 1 | < 1

Next, values leading:

Row | IC50 (endogenous CGRP receptor) [µM] | Ki [1] [µM] | Compound
13 | < 1 | < 1 | CC(C)CN1CCC(c2ncc(C3S[C@@H](CC(=O)N4CCC(N5CCc6ccccc6NC5=O)CC4)C(=O)N3CCC(C)(C)C)s2)CC1 (stereo partly drawn) [Compound 498, (5S)-3-(3,3-Dimethylbutyl)-2-(2-(1-isobutylpiperidin-4-yl)thiazol-5-yl)-5-(2-oxo-2-(4-(2-oxo-4,5-dihydro-1H-benzo[d][1,3]diazepin-3(2H)-yl)piperidin-1-yl)ethyl)thiazolidin-4-one]
14 | < 1 | < 1 | CC(C)(C)CCN1C(=O)[C@H](CC(=O)N2CCC(N3CCc4ccccc4NC3=O)CC2)S[C@@H]1c1ccccc1C1CCNCC1 [Compound 501, 4,5-Dihydro-3-(1-(2-((2R,5S)-3-(3,3-dimethylbutyl)-4-oxo-2-(2-(piperidin-4-yl)phenyl)thiazolidin-5-yl)acetyl)piperidin-4-yl)-1H-benzo[d][1,3]diazepin-2(3H)-one]
15 | < 1 | < 1 | CC(C)(C)CCN1C(=O)[C@H](CC(=O)N2CCC(N3CCc4ccccc4NC3=O)CC2)S[C@H]1c1ccccc1C1CCNCC1 [Compound 502, 4,5-Dihydro-3-(1-(2-((2S,5S)-3-(3,3-dimethylbutyl)-4-oxo-2-(2-(piperidin-4-yl)phenyl)thiazolidin-5-yl)acetyl)piperidin-4-yl)-1H-benzo[d][1,3]diazepin-2(3H)-one]
16 | < 1 | < 1 | CC(C)(C)N1CCN(c2c(F)cccc2[C@H]2S[C@@H](CC(=O)N3CCC(N4CCc5ccccc5NC4=O)CC3)C(=O)N2CCc2ccc(F)cc2)CC1 [Compound 503]
17 | < 1 | < 1 | CC(C)(C)N1CCN(c2c(F)cccc2[C@@H]2S[C@@H](CC(=O)N3CCC(N4CCc5ccccc5NC4=O)CC3)C(=O)N2CCc2ccc(F)cc2)CC1 [Compound 504]
18 | < 1 | < 1 | CC(C)(C)N1CCN(c2c(F)cccc2[C@H]2S[C@@H](CC(=O)N3CCC(N4CCc5ccccc5NC4=O)CC3)C(=O)N2CCc2ccccc2)CC1 [Compound 507]
19 | < 1 | < 1 | CC(C)(C)N1CCN(c2c(F)cccc2[C@@H]2S[C@@H](CC(=O)N3CCC(N4CCc5ccccc5NC4=O)CC3)C(=O)N2CCc2ccccc2)CC1 [Compound 508]
20 | < 1 | < 1 | CC(C)(C)N1CCN(c2c(F)cccc2C2S[C@@H](CC(=O)N3CCC(n4c(=O)[nH]c5ncccc54)CC3)C(=O)N2CCc2ccccc2)CC1 (some centres unmarked) [Compound 509]
21 | < 1 | < 1 | CC(C)(C)N1CCN(c2c(F)cccc2C2S[C@@H](CC(=O)N3CCC(N4CCc5ccccc5NC4=O)CC3)C(=O)N2CC2CCCCC2)CC1 (some centres unmarked) [Compound 515]
22 | < 1 | < 1 | CC(C)(C)N1CCN(c2c(F)cccc2C2S[C@@H](CC(=O)N3CCC(n4c(=O)[nH]c5ncccc54)CC3)C(=O)N2CC2CCCCC2)CC1 (some centres unmarked) [Compound 516]
23 | < 1 | < 1 | CC(C)CCN1CCC(c2ncc(C3S[C@@H](CC(=O)N4CCC(N5CCc6ccccc6NC5=O)CC4)C(=O)N3CCC(C)(C)C)s2)CC1 (some centres unmarked) [Compound 519]
24 | < 1 | < 1 | CC(C)(C)CCN1C(=O)[C@H](CC(=O)N2CCC(N3CCc4ccccc4NC3=O)CC2)SC1c1cccc(F)c1NCCN1CCCCC1 (stereo partly drawn) [Compound 520, 3-(1-(2-((5S)-2-(2-(2-(Piperidin-1-yl)ethylamino)-3-fluorophenyl)-3-(3,3-dimethylbutyl)-4-oxothiazolidin-5-yl)acetyl)piperidin-4-yl)-4,5-dihydro-1H-benzo[d][1,3]diazepin-2(3H)-one]
25 | < 1 | < 1 | CCCCN1C(=O)[C@H](CC(=O)N2CCC(N3CCc4ccccc4NC3=O)CC2)SC1c1cccc(F)c1N1CCN(C(C)(C)C)CC1 (some centres unmarked) [Compound 522]
26 | < 1 | < 1 | CC(C)(C)N1CCN(c2c(F)cccc2[C@@H]2S[C@@H](CC(=O)N3CCC(N4CCc5ccccc5NC4=O)CC3)C(=O)N2CC2CCOCC2)CC1 [Compound 524]
27 | < 1 | < 1 | CC(C)(C)CCN1C(=O)[C@H](CC(=O)N2CCC(n3c(=O)[nH]c4ncccc43)CC2)SC1c1ccccc1C1CCNCC1 (some centres unmarked) [Compound 528]
28 | < 1 | < 1 | CC(C)OCCN1C(=O)[C@H](CC(=O)N2CCC(N3CCc4ccccc4NC3=O)CC2)SC1c1cccc(F)c1N1CCN(C(C)(C)C)CC1 (some centres unmarked) [Compound 529]
